# From patent US9617282B2, “Macrocyclic compounds as IRAK4 inhibitors for the treatment of inflammatory diseases” (BIOGEN MA INC., priority 2013, dated 2017)
# Tests used:
# A549 cells = experiment: Cell-based assay, IL-6 ELISA quantification in IL-1 beta stimulated A549 cells; details: 2 ng/ml human IL-1 beta overnight, class symbols, read-out: Celluar Data EC50
# Description: The cell-based assays is based on IL-6 ELISA quantification. Briefly, A549 cells are cultured in DMEM with 10% FBS medium. When cells reach 80% confluence they are trypsin treated and seeded in 96-well plate at 2.5×10^4 cells/well. Then, 20 ul of compound serial dilutions (starting at 10 uM, 10 points) are added to the cell plate; incubate for 1 hour at 37 C and stimulated with 2 ng/ml human IL-1 beta 37 C overnight. The next day 100 ul of cell supernatant per well are analyzed on a Human IL-6 Quantikine ELISA kit from R&D Systems.
# IRAK4 = IRAK4 (Homo sapiens (Human), UniProt Q9NWZ3); experiment: IRAK-4 biochemical kinase assay, AlphaScreen format; details: 1 nM IRAK4, 1.6 μM peptide, 10 μM ATP, 3.5 h at RT
# Description: The biochemical assay is in a AlphaScreen format. The kinase reaction is based on the IRAK-4 phosphorylation of a biotin labeled peptide. The phosphopeptide is incubated with anti-phosphothreonine antibody as well as streptavidin- and protein A-coated beads. Binding of the protein-A coated beads to the antibody and the streptavidin beads to the peptide, leads to an energy transfer from one bead to the other, ultimately producing a luminescent/fluorescent signal.
# Chain of IRAK4 (Q9NWZ3 whole entry, species assumed): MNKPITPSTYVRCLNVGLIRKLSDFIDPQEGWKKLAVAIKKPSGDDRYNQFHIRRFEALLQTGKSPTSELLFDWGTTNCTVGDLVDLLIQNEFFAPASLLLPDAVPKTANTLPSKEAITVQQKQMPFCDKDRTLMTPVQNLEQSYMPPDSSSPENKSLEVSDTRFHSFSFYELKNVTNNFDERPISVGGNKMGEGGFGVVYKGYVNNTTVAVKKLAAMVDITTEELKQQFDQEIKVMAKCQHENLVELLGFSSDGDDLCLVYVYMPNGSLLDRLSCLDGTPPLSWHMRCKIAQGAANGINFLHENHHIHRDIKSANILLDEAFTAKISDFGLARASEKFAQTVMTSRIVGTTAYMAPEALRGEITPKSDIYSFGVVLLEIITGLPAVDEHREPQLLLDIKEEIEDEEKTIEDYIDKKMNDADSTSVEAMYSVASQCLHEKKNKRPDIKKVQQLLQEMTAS
EC50 (A549 cells),IC50 (IRAK4; class symbols),IC50 (IRAK4; given as numeric bound),SMILES
< 1000 nM,< 100 nM,–,Cn1cc2c(n1)C(=O)NCCCCCCNc1cc(ccn1)-c1nc(co1)C(=O)N2 [Compound 32]
< 1000 nM,< 100 nM,–,Cn1cc2c(n1)C(=O)NCCCCOc1cc(ccn1)-c1nc(co1)C(=O)N2 [Compound 34]
< 10000 nM,< 100 nM,–,CC(C)(C)OC(=O)N1CCN(CCn2cc3c(n2)C(=O)NCCOCCNc2cc(ccn2)-c2nc(cs2)C(=O)N3)CC1 [Example 144]
< 1000 nM,< 100 nM,–,CC(=O)N1CCCc2cc(ccn2)-c2nc(cs2)C(=O)Nc2cn(C3CCOCC3)nc2C(=O)NCC1 [Example 170]
< 10000 nM,< 100 nM,–,CN1CCN(CCn2cc3c(n2)C(=O)NCCOCCOc2cc(ccn2)-c2nc(cs2)C(=O)N3)CC1 [Example 113]
< 1000 nM,< 100 nM,–,O=C1Nc2cn(C3CCOCC3)nc2C(=O)NCCCOCCOc2cc(ccn2)-c2nc1co2 [Example 125]
> 10000 nM,< 1000 nM,–,O=C1CCNC(=O)c2csc(n2)-c2ccnc(c2)OCCOCCN1 [Example 126]
> 10000 nM,< 100 nM,–,CC(C)(C)OC(=O)N1CCC(CCn2cc3c(n2)C(=O)NCCOCCOc2cc(ccn2)-c2nc(cs2)C(=O)N3)CC1 [Example 154]
< 10000 nM,< 100 nM,–,O=C1Nc2cn(C3CCOCC3)nc2C(=O)NCCCCCc2cc(ccn2)-c2nc1co2 [Compound 40]
< 1000 nM,< 100 nM,–,O=C1Nc2cn(C3CCOCC3)nc2C(=O)NCCOCCCOc2cc(ccn2)-c2nc1cs2 [Example 123]
> 10000 nM,< 100 nM,–,CCn1cc2c(n1)C(=O)NCCOCCOc1cc(ccn1)-c1nc(cs1)C(=O)N2 [Example 139]
> 10000 nM,< 1000 nM,–,NC(=O)Cn1cc2c(n1)C(=O)NCCOCCOc1cc(ccn1)-c1nc(cs1)C(=O)N2 [Example 147]
> 10000 nM,< 1000 nM,–,O=C(O)CCn1cc2c(n1)C(=O)NCCOCCOc1cc(ccn1)-c1nc(cs1)C(=O)N2 [Example 149]
< 10000 nM,< 100 nM,–,O=C1Nc2ccccc2OCCCCCCn2cc(cn2)-c2nc1co2 [Compound 7]
< 10000 nM,< 100 nM,–,O=C1Nc2cn(CCN3CCNCC3)nc2C(=O)NCCOCCOc2cc(ccn2)-c2nc1cs2 [Example 115]
< 10000 nM,< 100 nM,–,Cn1cc2c(n1)C(=O)NCCOCCCc1cc(ccn1)-c1nc(cs1)C(=O)N2 [Compound 48]
< 1000 nM,< 100 nM,–,O=C1Nc2cn(CCN3CCOCC3)nc2C(=O)NCCOCCNc2cc(ccn2)-c2nc1cs2 [Example 118]
< 1000 nM,< 100 nM,–,Cn1cc2c(n1)C(=O)NCCCOCCOc1cc(ccn1)-c1nc(cs1)C(=O)N2 [Example 120]
< 10000 nM,< 100 nM,–,Cn1cc2c(n1)C(=O)NCCCCCc1cc(ccn1)-c1nc(cs1)C(=O)N2 [Example 96]
< 10000 nM,< 100 nM,–,CN(C)CCn1cc2c(n1)C(=O)NCCOCCNc1cc(ccn1)-c1nc(cs1)C(=O)N2 [Example 117]
< 1000 nM,< 100 nM,–,O=C1Nc2cn(C3CCOCC3)nc2C(=O)NCCOCCNc2cc(ccn2)-c2nc1cs2 [Compound 46]
< 10000 nM,< 100 nM,–,CC(C)(C)OC(=O)N1CCC(n2cc3c(n2)C(=O)NCCOCCOc2cc(ccn2)-c2nc(cs2)C(=O)N3)CC1 [Example 164]

EC50 (A549 cells),IC50 (IRAK4; class symbols),IC50 (IRAK4; given as numeric bound),SMILES
< 10000 nM,< 100 nM,–,CC(C)(C)OC(=O)N1CCC(Cn2cc3c(n2)C(=O)NCCOCCOc2cc(ccn2)-c2nc(cs2)C(=O)N3)CC1 [Example 159]
–,< 10000 nM,–,O=C1Nc2cn(C3CCOCC3)nc2C(=O)NCCCc2cc(ccn2)-c2nc1cs2 [Example 192]
–,< 10000 nM,–,CN1CCCCCCOc2cc(ccn2)-c2nc(cs2)C1=O [Example 103]
–,< 10000 nM,–,CC(C)(C)OC(=O)N1CCC(CCn2ncc3c2C(=O)NCCOCCOc2cc(ccn2)-c2nc(cs2)C(=O)N3)CC1 [Example 157]
–,< 100 nM,–,O=C1Nc2cc(C(=O)N3CCOCC3)ccc2OCCCCCNc2cc(ccn2)-c2nc1cs2 [Compound 22]
–,< 100 nM,–,Cn1cc2c(n1)C(=O)NCCCCCOc1cnccc1-c1nc(co1)C(=O)N2 [Example 63]
–,–,> 10000 nM,O=C1c2coc(n2)-c2ccnc(c2)OCCCCCCN1CCCN1CCCCC1 [Compound 57]
–,< 1000 nM,–,O=C1NCC2CCC(CC2)OCCNc2cc(ccn2)-c2nc1co2 [Example 85]
–,< 100 nM,–,CC(C)(C)OC(=O)NCCC(=O)N1CCCc2cc(ccn2)-c2nc(cs2)C(=O)Nc2cn(C3CCOCC3)nc2C(=O)NCC1 [Example 171]
–,< 100 nM,–,O=C1Nc2cc(Br)ccc2OCCCCCNc2cc(ccn2)-c2nc1cs2 [Example 73]
–,< 100 nM,–,O=C1Nc2cn(C3CCOCC3)nc2C(=O)NCCCCOc2cc(ccn2)-c2nc1co2 [Compound 36]
–,< 100 nM,–,CCC(=O)N1CCCc2cc(ccn2)-c2nc(cs2)C(=O)Nc2cn(C3CCOCC3)nc2C(=O)NCC1 [Example 183]
–,< 10000 nM,–,O=C(O)c1ccc2c(c1)NC(=O)c1csc(n1)-c1ccnc(c1)NCCCCCO2 [Compound 15]
–,–,> 10000 nM,COC(=O)c1ccc2c(c1)NC(=O)c1csc(n1)-c1ccnc(c1)NCCCCCO2 [Compound 14]
–,< 100 nM,–,O=C1Nc2cn(C3CCOCC3)nc2C(=O)NCCCOCCCc2cc(ccn2)-c2nc1cs2 [Example 216]
–,< 10000 nM,–,O=C1Nc2cn(C3CCOCC3)nc2C(=O)NCCCCCc2cc(ccn2)-c2nc1c[nH]2 [Example 97]
–,< 1000 nM,–,O=C1NCCCCCCOc2cc(ccn2)-c2nc1co2 [Compound 58]
–,< 100 nM,–,O=C(NCCN1CCOCC1)c1ccc2c(c1)NC(=O)c1csc(n1)-c1ccnc(c1)NCCCCCO2 [Compound 19]
–,< 100 nM,–,O=C1Nc2cn(C3CCOCC3)nc2C(=O)NCCOCCOc2cc(ccn2)-c2cccc1c2 [Example 210]
–,–,> 10000 nM,Cn1cc(N2CCCCOc3cnccc3-c3nc(co3)C2=O)cn1 [Example 89]
–,< 100 nM,–,O=C1Nc2ccccc2OC2CCC(CCc3cc(ccn3)-c3nc1co3)CC2 [Example 81]
–,< 100 nM,–,O=C(O)CCN1CCCc2cc(ccn2)-c2nc(cs2)C(=O)Nc2cn(C3CCOCC3)nc2C(=O)NCC1 [Example 179]

EC50 (A549 cells),IC50 (IRAK4; class symbols),IC50 (IRAK4; given as numeric bound),SMILES
–,< 100 nM,–,CN1CCN(C(=O)c2ccc3c(c2)NC(=O)c2csc(n2)-c2ccnc(c2)NCCCCCO3)CC1 [Compound 23]
–,< 100 nM,–,Cn1cc2c(n1)C(=O)NCCCCCNc1cc(ccn1)-c1nc(co1)C(=O)N2 [Compound 33]
–,< 100 nM,–,CCOC(=O)CCN1CCCc2cc(ccn2)-c2nc(cs2)C(=O)Nc2cn(C3CCOCC3)nc2C(=O)NCC1 [Example 180]
–,< 1000 nM,–,CC(C)(C)OC(=O)N1CCNC(=O)c2nn(C3CCOCC3)cc2NC(=O)c2csc(n2)-c2ccnc(c2)OCC1 [Example 167]
–,< 100 nM,–,CC1CCCC(C)Oc2ccccc2NC(=O)c2coc(n2)-c2ccnc(c2)N1 (stereo not drawn) [Example 71]
–,< 100 nM,–,O=C1NCCCCCCCCNc2cc(ccn2)-c2nc1co2 [Example 68]
–,< 100 nM,–,CN1CCOCCNC(=O)c2nn(CCN3CCCCC3)cc2NC(=O)c2csc(n2)-c2ccnc1c2 [Example 221]
–,< 1000 nM,–,Cn1cc(N2CCCCCOc3cnccc3-c3nc(co3)C2=O)cn1 [Compound 61]
–,< 1000 nM,–,CCN1CCCCCCCCNc2cc(ccn2)-c2nc(cs2)C1=O [Example 66]
–,< 10000 nM,–,O=C(O)CCC1NC(=O)c2nn(C3CCOCC3)cc2NC(=O)c2csc(n2)-c2ccnc(c2)CCCNC1=O (stereo not drawn) [Example 194]
–,< 1000 nM,–,O=C1NCCCCCCCCCn2cc(cn2)-c2nc1co2 [Compound 9]
–,–,> 10000 nM,O=C1Nc2ccccc2OCCCCNc2cc(ccn2)-c2nc1co2 [Example 70]
–,< 100 nM,–,O=C1Nc2cc(CCCN3CCCCC3)ccc2OCCCCCNc2cc(ccn2)-c2nc1cs2 [Compound 26]
–,< 10000 nM,–,CN1CCN(CCn2ncc3c2C(=O)NCCOCCOc2cc(ccn2)-c2nc(cs2)C(=O)N3)CC1 [Example 141]
–,< 10000 nM,–,CN1CCC(CCn2ncc3c2C(=O)NCCOCCOc2cc(ccn2)-c2nc(cs2)C(=O)N3)CC1 [Example 156]
–,< 1000 nM,–,NC(=O)CN1CCCc2cc(ccn2)-c2nc(cs2)C(=O)Nc2cn(C3CCOCC3)nc2C(=O)NCC1 [Example 175]
–,< 100 nM,–,CC1CCCCNc2cc(ccn2)-c2nc(co2)C(=O)Nc2ccccc2O1 (stereo not drawn) [Example 69]
–,< 1000 nM,–,O=C1NCC(C2CC2)OCCCCCNc2cc(ccn2)-c2nc1co2 (stereo not drawn) [Example 75]
–,< 1000 nM,–,CC(C)(C)C(=O)N1CCCc2cc(ccn2)-c2nc(cs2)C(=O)Nc2cn(C3CCOCC3)nc2C(=O)NCC1 [Example 182]
–,–,> 10000 nM,O=C1NCC(C2CCCCC2)OCCCCCNc2cc(ccn2)-c2nc1co2 (stereo not drawn) [Example 77]
–,< 100 nM,–,O=C1Nc2ccccc2OCCCCCCn2cc(cn2)-c2nc1cs2 [Example 72]
–,–,> 10000 nM,CN1CCCCCCOc2cc(ccn2)-c2nc(co2)C1=O [Compound 52]

SMILES,EC50 (A549 cells),IC50 (IRAK4; class symbols),IC50 (IRAK4; given as numeric bound)
C[Si](C)(C)CCOCn1cc2nc1-c1ccnc(c1)CCCCCNC(=O)c1nn(C3CCOCC3)cc1NC2=O [Example 98],–,< 10000 nM,–
O=C1Nc2ccccc2OCCCCCCc2cc(ccn2)-c2nc1co2 [Compound 5],–,< 100 nM,–
Cn1cc2c(n1)C(=O)N(COCC[Si](C)(C)C)CCCCOc1cc(ccn1)-c1nc(cn1COCC[Si](C)(C)C)C(=O)N2 [Example 93],–,< 10000 nM,–
O=C1Nc2ccccc2OCCCCCOc2cc(ccn2)-c2nc1co2 [Compound 3],–,< 1000 nM,–
